{"source": "paper PMC9901219", "about": "(European Journal of Medicinal Chemistry, 2023)", "key": {"[1]": {"target": "T1, SARS-CoV-2 3CLpro (Severe acute respiratory syndrome coronavirus 2, UniProt P0DTD1)", "assay": "biochemical"}, "[2]": {"target": "T2, Human Calpain 1 (Homo sapiens, UniProt P07384)", "T2 sequence (P07384 1-714)": "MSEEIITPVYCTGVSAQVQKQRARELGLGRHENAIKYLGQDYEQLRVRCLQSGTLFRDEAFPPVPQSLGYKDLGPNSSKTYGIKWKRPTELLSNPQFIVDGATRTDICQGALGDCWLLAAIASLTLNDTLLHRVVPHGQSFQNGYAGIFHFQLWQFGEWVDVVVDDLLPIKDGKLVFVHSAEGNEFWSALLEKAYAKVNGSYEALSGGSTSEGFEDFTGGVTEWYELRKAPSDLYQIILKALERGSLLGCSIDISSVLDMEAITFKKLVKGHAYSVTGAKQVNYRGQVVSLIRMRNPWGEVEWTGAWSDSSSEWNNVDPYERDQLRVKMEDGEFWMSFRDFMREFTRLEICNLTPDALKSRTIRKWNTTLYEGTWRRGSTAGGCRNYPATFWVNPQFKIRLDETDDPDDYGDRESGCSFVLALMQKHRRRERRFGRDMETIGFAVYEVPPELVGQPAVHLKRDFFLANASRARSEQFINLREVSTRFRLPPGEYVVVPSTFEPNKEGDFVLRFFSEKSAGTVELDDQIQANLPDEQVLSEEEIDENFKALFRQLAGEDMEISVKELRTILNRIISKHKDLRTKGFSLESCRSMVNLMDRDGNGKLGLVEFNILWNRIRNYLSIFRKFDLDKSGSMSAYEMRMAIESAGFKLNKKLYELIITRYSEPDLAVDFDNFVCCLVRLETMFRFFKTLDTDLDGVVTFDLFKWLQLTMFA", "T2 sequence (P04632 1-268 partner)": "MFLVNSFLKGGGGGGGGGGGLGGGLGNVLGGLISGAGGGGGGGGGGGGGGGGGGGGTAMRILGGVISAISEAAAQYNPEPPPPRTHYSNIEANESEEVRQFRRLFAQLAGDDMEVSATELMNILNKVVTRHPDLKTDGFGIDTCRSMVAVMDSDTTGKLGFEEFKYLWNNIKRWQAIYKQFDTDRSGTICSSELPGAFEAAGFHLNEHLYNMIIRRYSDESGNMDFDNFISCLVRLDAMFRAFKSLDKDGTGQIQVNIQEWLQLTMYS", "assay": "Calpain assay", "assay_type": "biochemical"}, "[3]": {"target": "Cathepsin L (Homo sapiens, UniProt P07711)", "sequence (P07711 114-333)": "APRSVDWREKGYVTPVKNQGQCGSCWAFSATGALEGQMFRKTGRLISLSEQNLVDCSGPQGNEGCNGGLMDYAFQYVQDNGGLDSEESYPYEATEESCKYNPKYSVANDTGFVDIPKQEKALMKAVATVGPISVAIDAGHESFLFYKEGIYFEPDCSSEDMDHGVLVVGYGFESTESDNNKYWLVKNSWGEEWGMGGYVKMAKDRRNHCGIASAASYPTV", "assay_type": "biochemical", "settings": "calpain 1 and cathepsin L versus SARS-CoV-2 3CLpro"}, "[4]": {"target": "T1, SARS-CoV-2 3CLpro", "assay_type": "binding"}, "[5]": {"target": "T1, SARS-CoV-2 3CLpro", "assay_type": "biochemical"}, "[6]": {"assay": "Stability of compound in enzymatic assay buffer with GSH", "assay_type": "physicochemical"}}}
{"smiles": "S=C(NCc1cccnc1)OCc1ccccc1", "note": "[Compound 1D, O-benzyl(pyridin-3-ylmethyl)carbamothioate]", "values": [{"measurement": "inhibitory effect on SARS-CoV-2 3CLpro", "setting": "[1]", "result": "inactive"}]}
{"smiles": "Cc1cccc2nc(CSC(=S)NCc3cccnc3)cn12", "note": "[Compound 1, (5-methylimidazo[1,2-a]pyridin-2-yl)methyl (pyridin-3-ylmethyl)carbamodithioate]", "values": [{"measurement": "Assay without GSH pIC50 ± SD", "setting": "[1]", "result": "7.67 ± 0.30"}, {"measurement": "SARS-CoV-2 (Beta-CoV) 3CLpro pIC50 ± SD", "setting": "[1]", "result": "0.021 (7.67 ± 0.30)"}, {"measurement": "IC50", "setting": "[1]; SARS-CoV-2 3CLpro IC50", "result": 1.75, "unit": "µM"}, {"measurement": "IC50", "setting": "[2]", "result": "> 300", "unit": "µM"}, {"measurement": "Human Calpain 1 pIC50 ± SD", "setting": "[2]; GSH 2 mM, pre-incubation of 30 min", "result": "> 3.52"}, {"measurement": "selectivity over two human cysteine proteases", "setting": "[3]", "result": "more than 80 fold"}, {"measurement": "Thermal shift ΔTm of SARS-CoV-2 3CLpro with GSH", "setting": "[4]", "result": 11.33, "unit": "°C"}, {"measurement": "enzyme inhibition after jump dilution", "setting": "[5]", "result": "around 80%"}, {"measurement": "enzyme inhibition after jump dilution (words)", "setting": "[5]", "result": "no more inhibition"}, {"measurement": "time within which inhibition is reversible", "setting": "[5]", "result": "≤ 2", "unit": "h"}, {"measurement": "disappearance of the compound", "setting": "[6]; 100 μM in enzymatic assay buffer, 2 mM GSH, 1.5 h incubation", "result": "less than 10%"}, {"measurement": "reaction conversion with GSH", "setting": "[6]; after 90 min, GSH 2 mM", "result": "< 10", "unit": "%"}]}
{"smiles": "CCSC(=S)NCc1cccnc1", "note": "[Compound 1B, Ethyl (pyridin-3-ylmethyl)carbamodithioate]", "values": [{"measurement": "fold lower potency compared to compound 1", "setting": "[1]", "result": 8, "unit": "fold"}]}
{"smiles": "Cc1cccc2nc(CNC(=S)NCc3cccnc3)cn12", "note": "[Compound 1A, 1-((5-methylimidazo[1,2-a]pyridin-2-yl)methyl)-3-(pyridin-3-ylmethyl)thiourea]", "values": [{"measurement": "Assay without GSH pIC50 ± SD", "setting": "[1]", "result": "4.46 ± 0.19"}, {"measurement": "inhibitory effect on SARS-CoV-2 3CLpro", "setting": "[1]", "result": "inactive"}]}
{"smiles": "CC(=O)[O-].CC(=O)[O-].[Zn+2]", "note": "[zinc acetate, reference compound]", "values": [{"measurement": "inhibitory activity in presence of zinc chelator EDTA", "setting": "[1]", "result": "completely loose its inhibitory activity"}]}
